Source: patent publication US20220110916A1, “Antioxidant and Use Thereof” (Bioradical Research Institute Corp., priority 2019, published 2022)

Tests used:
[1] = system: neutrophils isolated from the peripheral blood of healthy individuals; assay: Superoxide production amount of PMA-stimulated neutrophils with PBS solutions stored for 10 days vs immediately after preparation; format: cell-based, human; settings: PBS solution stored for 10 days vs immediately after preparation; 0, 6.25, 12.5, 25, 50, 100 or 20 μmol/l; FIG. 4
Method: First, ED2AP, BisEp-C3, edaravone, BisEp-C1, or BisEp-C1 (H2) was added to a neutrophil of 4×10^5 cells per sample so as to achieve a predetermined concentration (0, 12.5, 25, 50, 100, or 200 μmol/l, or 0, 125, 250, 500, 1250, 2500, or 5000 μmol/l) with 5 μmol of CLA, and then the cell suspension was seeded in flat-bottomed 96-well plates. The volume of the suspension was 200 μl/well, and phenol red free Ca+, Mg+ HBSS was used as the solution. In addition, the neutrophil was stimulated by adding PMA so as to achieve a concentration of 100 ng/ml. After the stimulation, a plate reader (Envision 2104 Multilabel Reader, produced by Perkin Elmer Co., Ltd.) was used to measure the chemiluminescence value over time for 30 minutes with the PMA stimulation time being a reference. The measurement interval was 30 seconds. The sum of the chemiluminescence values obtained every 30 seconds for 30 minutes was taken as the superoxide production amount. In addition, as a control, the superoxide production amount was measured in the same manner except that each compound was not added. The relative value of the superoxide production amount when each compound was added was calculated with the superoxide production amount of the control being 100.
PBS solutions of ED2AP, BisEp-C3, and edaravone were prepared in the same manner as in Example 2 and stored for 10 days. The superoxide production amount was calculated in the same manner as in Example 4 except that the PBS solution after storage was added instead of ED2AP, BisEp-C3, edaravone, BisEp-C1 or BisEp-C1 (H2) so as to achieve a predetermined concentration (0, 6.25, 12.5, 25, 50, 100 or 20 μmol/l) of ED2AP, BisEp-C3 or edaravone. Further, PBS solutions of ED2AP, BisEp-C3, and edaravone were prepared in the same manner as in Example 2, and the superoxide production amount was calculated in the same manner except that the PBS solution immediately after preparation was used. Then, the relative value of the superoxide production amount of each sample was calculated with the superoxide production amount of the sample of 0 μmol/l being 100.

[2] = Storage stability in pH7.4-PBS or pure water at 37° C. protected from light, residual rate by HPLC; format: physicochemical; settings: 200 μmol/l; for Residual rate (%) After 1 week / Residual rate (%) After 2 weeks: 37° C., protected from light; for Residual rate (%) Initial concentration: initial concentration (reference 100%)
Method: The storage stability of edaravone, EMPO, ED2AP, and BisEp-C3 of the following formula (A) were examined. Specifically, edaravone, EMPO, ED2AP, and BisEp-C3 were dissolved in pH7.4-PBS or pure water so as to have a final concentration of 200 μmol/l to prepare dissolved solutions of these compounds. When the compounds were difficult to be dissolved, they were dissolved in an ultrasonic cleaner with warm water at 40° C.
Under the measurement conditions for HPLC described below, the initial concentration was quantified, and then each solution was stored in an oven, which was protected from light, at 37° C., and quantified under the same measurement conditions after 1 week and 2 weeks, to determine residual rate (%) with the initial concentration (100%) being a reference.
Measurement conditions for HPLC
PDA detector (Format: SPD-M20A) HPLC Assay Conditions:
Column: Atlantis dC18 5 μm (250×4.6 mm I.D.; produced by Waters)
Column temperature: 45° C.
Detection method: UV (254 nm)
Eluate A: pH3 buffer solution (adjusted to pH3 by adding phosphoric acid to 0.05M KH2PO4 aqueous solution)/methanol=90/10

[3] = Water solubility noted at synthesis; format: physicochemical; settings: crystal obtained in Example 1
Method: 3.58 g of 3-methyl-1-phenyl-5-pyrazolone (hereinafter, also referred to as “edaravone”), 2.59 g of malonaldehyde dianilide hydrochloride, and 20 ml of ethanol were added to a reactor and dissolved. To the obtained solution, 2.04 g of triethylamine and 0.4 ml of water were added and stirred for 1 hour at room temperature (about 25° C., hereinafter, the same applies). After the stirring, the resultant was further reacted for 1 hour at 50° C. After discharging the obtained reaction solution to 100 ml of 1N hydrochloric acid, the mixture was sufficiently stirred and the precipitate was filtered. The resulting cake was washed with water. The cake was added to 200 ml of an aqueous sodium hydroxide solution having a 1% by weight concentration and completely dissolved by heating with stirring. Next, the dissolved solution was stirred for 3 hours after cooling to room temperature. Then, the liquid containing the obtained precipitate was filtered, and then the cake was washed with water. […] Note that the melting point of ED2AP was 249° C., which was water-soluble.
3 ml of dimethylformamide was added to a reactor and the exterior of the reactor was cooled with ice water. 1.75 g of phosphorus oxychloride was slowly dropped into the reactor (Reaction Solution A). In another reactor, 1.78 g of edaravone was dissolved in 5 ml of dimethylformamide (Reaction Solution B). Under room temperature, the reaction solution B was slowly added to the reaction solution A, and the resulting mixture was allowed to react for 1 hour with the end of addition (Reaction Solution C) being a reference. In another reactor, 1.81 g of 3-methyl-1-phenyl-5-pyrazolone was added to 8 ml of chloroform and dissolved (Reaction Solution D). Under room temperature, the reaction solution C was slowly added to the reaction solution D, followed by stirring for 20 minutes and further stirring at 70° C. for 1 hour. To the resultant, 0.2 g of water was added and stirred for another 2 hours. The obtained reaction solution was discharged into 100 ml of water and extracted with a mixed solvent of toluene/ethyl acetate=1/1 (volume ratio). After condensation of the obtained extract, column purification was performed to obtain 2.92 g of yellow crystal of the compound of the formula (10) having the following physical properties.
1.00 g of edaravone, 0.72 g of paraformaldehyde, and 20 ml of formic acid were added to a reaction flask and stirred overnight for 20 hours at 70° C. The obtained reaction solution was discharged into 80 ml of water and extracted with a mixed solvent of toluene/ethyl acetate=1/1 (volume ratio). When the extract was condensed to about two-thirds, crystals were precipitated. Further, the resultant was cooled to room temperature, and sufficiently crystallized, and then filtered. The obtained cake was washed with toluene to obtain 0.88 g of pale yellow crystal of the compound of the formula (14) having the following physical properties.
In Example 1(1), synthesis was performed in the same manner as described above except that 3-methyl-1-ethyl-5-pyrazolone was used instead of edaravone to obtain red crystal of BisEp-C3 having the following physical properties. Note that BisEp-C3 was water-soluble.
In Example 1(2), synthesis was performed in the same manner as described above except that 3-methyl-1-ethyl-5-pyrazolone was used instead of edaravone to obtain yellow crystal of BisEp-C1 having the following physical properties. Note that BisEp-C1 was water-soluble.
In Example 1(3), synthesis was performed in the same manner as described above except that 3-methyl-1-ethyl-5-pyrazolone was used instead of edaravone, then the obtained reaction solution was condensed, and the resultant was subjected to column purification to obtain colorless crystal of BisEp-C1 (H2) having the following physical properties. Note that BisEp-C1 (H2) was water-soluble.

| SMILES | superoxide-eliminating ability after storage [1] | Residual rate (%) After 1 week ([2]; Pure water) [%] | Residual rate (%) After 2 weeks ([2]; Pure water) [%] | Residual rate (%) Initial concentration ([2]; Pure water) [%] | Residual rate (%) After 1 week ([2]; pH 7.4-PBS) [%] | Residual rate (%) After 2 weeks ([2]; pH 7.4-PBS) [%] | Residual rate (%) Initial concentration ([2]; pH 7.4-PBS) [%] | solubility in water [3] |
| --- | --- | --- | --- | --- | --- | --- | --- | --- |
| CCN1N=C(C)/C(=C\C=C\c2c(C)nn(CC)c2O)C1=O (racemic) [BisEp-C3, 2,4-dihydro-4-[3-(1-ethyl-5-hydroxy-3-methyl-1H-pyrazol-4-yl)-2-propen-1-ylidene]-2-ethyl-5-methyl-3H-pyrazol-3-one] | maintained the superoxide-eliminating ability equivalent to that immediately after preparation even after storage | 99.4 | 88.5 | 100 | 98.7 | 93.6 | 100 | water-soluble |
| CC1=NN(c2ccccc2)C(=O)/C1=C/C=C/c1c(C)nn(-c2ccccc2)c1O (racemic) [ED2AP, 2,4-dihydro-4-[3-(5-hydroxy-3-methyl-1-phenyl-1H-pyrazol-4-yl)-2-propen-1-ylidene]-5-methyl-2-phenyl-3H-pyrazol-3-one] | maintained the superoxide-eliminating ability equivalent to that immediately after preparation even after storage | 96.1 | 89.8 | 100 | 96.2 | 91.3 | 100 | water-soluble |
